Results published in patent US11629105B2, “Plant treatment composition” (Croda International Plc, priority 2016, dated 2023).
Read-outs that look alike come from different tables or passages of the source. Values belong to the compound of their own block, whether it stands above or below them.

Tests used:
[1] = Procedure: The solubility of other substituted ureas and substituted thioureas was tested in this solvent.
[2] = Stability of emulsion of urea derivative solution with ATLOX 4991; assay type: physicochemical
[3] = Water solubility of solvents (OECD 105); assay type: physicochemical; settings: solvent in water; for solubility: water, thermodynamic from solid
[4] = Solvent screening for ability to dissolve diphenyl urea (DPU); assay type: physicochemical; settings: solubility of diphenyl urea (DPU) in the named solvent
[5] = 2% w/w urea derivative in AGNIQUE AMD10

SMILES: CCN(C(=O)N(CC)c1ccccc1)c1ccccc1 [1,3-diethyl-1,3-diphenyl urea]
Fully Soluble in AGNIQUE AMD10? (2% w/w urea derivative) [1, 5]: Yes
Emulsion with ATLOX 4991 stable? (4 wks ambient) [2]: Yes

SMILES: CCNC(=O)NCC [1,3-diethylurea]
Fully Soluble in AGNIQUE AMD10? (2% w/w urea derivative) [1]: Yes
Emulsion with ATLOX 4991 stable? (4 wks ambient) [2]: Yes

SMILES: CCCCCCCCCCCCN1CCCC1=O [1-Dodecyl-2-pyrrolidone, 1-dodecyl-2-pyrrolidone]
solubility [3]: < 2000 µg/mL

SMILES: CCCCCCCCCC(=O)N(C)C [AGNIQUE ® AMD10, Capric acid dimethylamide]
Water solubility (OECD 105) [3]: 574 µg/mL
solubility [3]: < 1000 µg/mL

SMILES: CCCCCCCC(=O)OC [AGNIQUE ® ME890, Methyl octanoate]
DPU Solubility comments [4]: Effectively insoluble

SMILES: O=C(NCO)NCO [N,N′-bis(hydroxymethyl) urea]
Fully Soluble in AGNIQUE AMD10? (2% w/w urea derivative) [1]: No
solubility in AGNIQUE AMD10 [1]: < 2 % w/w

Second part, the compound after the results:

DPU Solubility comments [4]: Effectively insoluble
SMILES: CCCCOC(=O)CCCCC(=O)OCCCC [CETIOL ® B, Dibutyladipate]

DPU Solubility comments [4]: Effectively insoluble
SMILES: CC(O)COc1ccccc1 (stereo not drawn) [DOWANOL ™ PPh, 1-phenoxypropan-2-ol]

DPU Solubility comments [4]: Effectively insoluble
SMILES: CCCCOC(C)COC(C)COC(C)CO (stereo not drawn) [DOWANOL ™ TPnB, Tripropylene glycol n-Butyl ether]

Fully Soluble in AGNIQUE AMD10? (2% w/w urea derivative) [1]: Yes
Emulsion with ATLOX 4991 stable? (4 wks ambient) [2]: Yes
SMILES: CCCCNC(=S)NCCCC [N,N′-dibutylthiourea]

Fully Soluble in AGNIQUE AMD10? (2% w/w urea derivative) [1, 5]: No
SMILES: O=C(NC1CCCCC1)NC1CCCCC1 [N,N′-dicyclohexyl urea]

Fully Soluble in AGNIQUE AMD10? (2% w/w urea derivative) [1]: No
solubility in AGNIQUE AMD10 [1]: < 2 % w/w
SMILES: O=C1NCCCN1 [N,N′-trimethylene urea]

solubility [3]: < 2000 µg/mL
SMILES: CCCCCCCCN1CCCC1=O [N-octylpyrrolidone]

Fully Soluble in AGNIQUE AMD10? (2% w/w urea derivative) [1]: Yes
Emulsion with ATLOX 4991 stable? (4 wks ambient) [2]: Yes
SMILES: NC(=O)Nc1ccccc1 [N-phenyl urea]
